Experiment: mn = molality of the nth substance listed, in mol/kg
Details: 87 kPa, Liquid, Vibrating tube method

CCn1cc[n+](C)c1.O=S(=O)([O-])O [1-ethyl-3-methylimidazolium hydrogen sulfate] + O
mass density [kg/m3]
Details	293.15 K	298.15 K	303.15 K	308.15 K	313.15 K
m1 = 0.05	1001.85	1000.62	999.15	997.45	995.6
m1 = 0.1	1005.19	1003.89	1002.36	1000.61	998.69
m1 = 0.15	1008.26	1006.91	1005.32	1003.53	1001.51

NCC(=O)O [2-aminoacetic acid] + O
mass density [kg/m3]
Details	m1 = 0.0547	m1 = 0.1057	m1 = 0.1546	m1 = 0.2061	m1 = 0.2531	m1 = 0.3046	m1 = 0.3538	m1 = 0.403	m1 = 0.452	m1 = 0.499
293.15 K	999.97	1001.59	1003.13	1004.74	1006.2	1007.78	1009.28	1010.77	1012.24	1013.64
298.15 K	998.8	1000.41	1001.94	1003.54	1004.99	1006.56	1008.06	1009.54	1011	1012.39
303.15 K	997.39	998.99	1000.51	1002.1	1003.53	1005.09	1006.57	1008.04	1009.48	1010.86
308.15 K	995.77	997.36	–	1000.45	1001.88	1003.42	1004.89	1006.35	1007.78	1009.14
313.15 K	993.92	995.5	997	–	999.99	1001.53	1002.98	1004.43	1005.86	1007.22

N[C@@H](CO)C(=O)O [L-serine] + O
mass density [kg/m3]
Details	m1 = 0.0529	m1 = 0.1005	m1 = 0.1529	m1 = 0.2024	m1 = 0.2541	m1 = 0.3019	m1 = 0.3525	m1 = 0.4023	m1 = 0.4535	m1 = 0.5008
293.15 K	1000.59	1002.7	1005	1007.15	1009.38	1011.42	1013.56	1015.65	1017.77	1019.72
298.15 K	999.41	1001.5	1003.78	1005.92	1008.13	1010.15	1012.27	1014.34	1016.44	1018.37
303.15 K	997.99	1000.06	1002.33	1004.45	1006.64	1008.65	1010.76	1012.81	1014.9	1016.82
308.15 K	996.36	998.42	1000.67	1002.77	1004.94	1006.94	1009.04	1011.08	1013.16	1015.07
313.15 K	994.5	996.54	998.77	1000.85	1003.01	1004.99	1007.07	1009.11	1011.18	1013.07

Reference: the NIST ThermoML archive (doi:10.1016/j.jct.2016.07.046)
